In patent US12398151B2, “Sumo inhibitor compounds and uses thereof” (SUVALENT THERAPEUTICS, INC., priority 2019, dated 2025):
Where two headings read alike, the source gives them in different places.

Columns and labels:
SUMO E1 = target: T1, SUMO E1 (Homo sapiens, UniProt Q9UBT2); experiment: SUMO E1 inhibition: UBC9-SUMO1 conjugation by SDS gel electrophoresis; format: biochemical; settings: read-out: SUMO E1 percent inhibition of adduct formation; for inhibition at 25 µM: 25 uM compound; for inhibition at 9 µM: 9 uM compound; for inhibition at 10 µM: 10 uM compound; for inhibition at 27 µM: 27 uM compound; for inhibition at 1 µM: 1 uM compound
T1 sequence (Q9UBT2 1-640): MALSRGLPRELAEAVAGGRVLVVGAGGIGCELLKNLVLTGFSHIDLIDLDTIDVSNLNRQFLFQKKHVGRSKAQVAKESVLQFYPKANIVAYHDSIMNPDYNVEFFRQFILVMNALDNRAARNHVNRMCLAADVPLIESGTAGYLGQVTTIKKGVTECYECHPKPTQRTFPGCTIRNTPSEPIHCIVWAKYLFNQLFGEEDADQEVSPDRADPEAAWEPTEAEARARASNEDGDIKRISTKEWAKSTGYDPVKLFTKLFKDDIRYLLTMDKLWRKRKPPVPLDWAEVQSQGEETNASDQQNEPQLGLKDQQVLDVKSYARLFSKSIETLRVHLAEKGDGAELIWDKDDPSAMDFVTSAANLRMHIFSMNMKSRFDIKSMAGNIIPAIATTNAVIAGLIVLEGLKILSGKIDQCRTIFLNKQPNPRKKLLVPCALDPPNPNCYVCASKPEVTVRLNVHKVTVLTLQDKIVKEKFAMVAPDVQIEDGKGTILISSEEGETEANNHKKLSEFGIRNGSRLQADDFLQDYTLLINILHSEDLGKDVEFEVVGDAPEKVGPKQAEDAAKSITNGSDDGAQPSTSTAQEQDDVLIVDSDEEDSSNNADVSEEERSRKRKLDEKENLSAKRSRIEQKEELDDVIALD
T1 sequence (Q9UBE0 1-346 partner): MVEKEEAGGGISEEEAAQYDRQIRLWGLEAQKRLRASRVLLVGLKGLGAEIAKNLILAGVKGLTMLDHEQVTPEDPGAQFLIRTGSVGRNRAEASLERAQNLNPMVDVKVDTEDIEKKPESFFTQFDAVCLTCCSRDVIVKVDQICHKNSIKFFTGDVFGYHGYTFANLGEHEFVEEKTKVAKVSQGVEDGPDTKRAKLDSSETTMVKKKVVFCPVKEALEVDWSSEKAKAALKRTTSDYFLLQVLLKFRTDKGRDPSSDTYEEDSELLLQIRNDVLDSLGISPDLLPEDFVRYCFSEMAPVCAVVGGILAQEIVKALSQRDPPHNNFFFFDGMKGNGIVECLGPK
Method: (§1) Compounds are evaluated for their inhibitory effect on activating enzymes (E1) of ubiquitin, SUMO, Nedd8, Urm1, ISG15 or Atg7 using previously reported methods and protocols. One example is in: Allosteric inhibition of ubiquitin-like modifications by a class of inhibitor of SUMO-activating enzyme. Cell Chemical Biology, 26, 1-11, 2019. PMID: 28051857.
(§2) Compounds are tested in the following manner. The compound and SUMO E1 are incubated for a predetermined amount of time. UBC9, SUMO1, and ATP are added to the E1-compound mixture and incubated at 37° C. The reaction is quenched with Laemmli Buffer. The UBC9-SUMO1 conjugation is analyzed via SDS gel electrophoresis. The percent inhibition is measured by the intensity of the UBC9-SUMO1 band compared to the no compound control. Activities are listed as compound concentration (uM), preincubation time of E1 with compound (min), and percent inhibition of adduct formation (%). […]

Atg7 = target: T2, Atg7 (Homo sapiens, UniProt O95352); experiment: Atg7 activating enzyme (E1) inhibition; format: biochemical; settings: 25 uM compound, 60 min preincubation; read-out: Atg7 percent inhibition of adduct formation
T2 sequence (O95352 1-703): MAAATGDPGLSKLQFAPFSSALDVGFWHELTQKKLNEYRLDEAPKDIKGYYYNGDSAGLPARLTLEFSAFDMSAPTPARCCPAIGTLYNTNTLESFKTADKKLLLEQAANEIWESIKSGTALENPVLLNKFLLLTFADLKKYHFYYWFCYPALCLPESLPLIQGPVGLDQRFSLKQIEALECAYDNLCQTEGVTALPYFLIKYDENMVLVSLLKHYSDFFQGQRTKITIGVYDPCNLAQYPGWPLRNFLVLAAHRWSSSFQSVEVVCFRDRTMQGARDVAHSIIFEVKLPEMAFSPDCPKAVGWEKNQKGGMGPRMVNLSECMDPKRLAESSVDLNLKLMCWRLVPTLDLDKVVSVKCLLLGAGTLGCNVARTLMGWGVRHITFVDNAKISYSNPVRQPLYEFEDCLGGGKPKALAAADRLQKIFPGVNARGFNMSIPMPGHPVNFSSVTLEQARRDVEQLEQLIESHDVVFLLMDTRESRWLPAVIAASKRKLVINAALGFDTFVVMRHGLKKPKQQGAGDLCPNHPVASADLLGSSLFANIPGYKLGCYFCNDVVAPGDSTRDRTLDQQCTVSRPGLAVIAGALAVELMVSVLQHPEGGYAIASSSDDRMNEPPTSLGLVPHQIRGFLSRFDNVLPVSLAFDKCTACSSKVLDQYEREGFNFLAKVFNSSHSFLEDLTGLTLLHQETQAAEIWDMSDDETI
Method: as §1, §2

Structure (SMILES) | inhibition at 25 µM (SUMO E1; 60 min preincubation) [%] | inhibition at 25 µM (Atg7) [%] | other results
C=CC(=O)N1Cc2ccc(Br)cc2C1 [Compound 9] | < 1 | < 1 | –
C=CC(=O)N1Cc2cc(OCC)ccc2[C@@H](c2ccccc2)C1 [Compound 36] | 40 | < 1 | –
C=CC(=O)N1Cc2sccc2[C@@H](c2ccc(OC)cc2)C1 [Compound 155] | – | < 1 | inhibition at 15 µM (SUMO E1; 15 uM compound, 15 min preincubation): < 1%
CCS(=O)(=O)N1Cc2sc(Cl)cc2[C@@H](c2ccccc2C)C1 [Compound 96] | – | 90 | inhibition at 9 µM (SUMO E1; 30 min preincubation): < 1%
C=CC(=O)N1Cc2ccc(CC)cc2[C@@H](c2ccccc2)C1 [Compound 41] | < 1 | < 1 | –
C=CC(=O)N1Cc2cc(Cl)c(Cl)cc2[C@@H](c2ncccc2C)C1 [Compound 98] | – | < 1 | inhibition at 9 µM (SUMO E1; 30 min preincubation): < 1%
CCC(=O)Nc1ccc2cc(Br)ccc2c1 [Compound 25] | < 1 | < 1 | –
C=CC(=O)N1Cc2sc(Cl)cc2[C@@H](c2ccccc2OCCN(C)C)C1 [Compound 151] | – | < 1 | inhibition at 6 µM (SUMO E1; 6 uM compound, 15 min preincubation): < 1%
C=CC(=O)N1Cc2cc(Cl)ccc2[C@@H](C2CCCCC2)C1 [Compound 102] | – | < 1 | inhibition at 9 µM (SUMO E1; 30 min preincubation): 40%
C=CC(=O)N1Cc2cc(Cl)ccc2[C@@H](c2ccccc2)C1 [Compound 64] | – | < 1 | inhibition at 10 µM (SUMO E1; 60 min preincubation): 100%
C=CC(=O)N1CCc2c(Br)cccc2C1 [Compound 1] | – | < 1 | inhibition at 25 µM (SUMO E1; 55 min preincubation of E1 with compound): 50%
C=CC(=O)N1Cc2ccccc2[C@@H](c2c(F)cccc2F)C1 [Compound 43] | < 1 | < 1 | –
C=CC(=O)N1Cc2cc(Br)ccc2[C@@H](c2ccccc2)C1 [Compound 61] | – | < 1 | inhibition at 10 µM (SUMO E1; 60 min preincubation): 100%
C=CC(=O)N1Cc2sc(Cl)cc2[C@@H]([C@@H](CC)C(=O)O)C1 [Compound 134] | – | < 1 | inhibition at 27 µM (SUMO E1; 15 min preincubation): < 1%
C=CC(=O)N1Cc2ccccc2[C@@H](C(=O)OC)C1 [Compound 27] | < 1 | < 1 | –
Cc1ccccc1[C@H]1CN(C(=O)/C=C/C(F)F)Cc2sc(Cl)cc21 [Compound 122] | – | < 1 | inhibition at 1 µM (SUMO E1; 30 min preincubation): 100%
C=CC(=O)N1Cc2ccc(-c3ccccc3)cc2[C@@H](c2ccccc2)C1 [Compound 38] | < 1 | < 1 | –
C=CC(=O)N1CCc2cc(CC3CCOCC3)ccc2C1 [Compound 18] | < 1 | 95 | –
C=CC(=O)N1Cc2oc(C)cc2[C@@H](c2ccccc2)C1 [Compound 83] | – | < 1 | inhibition at 10 µM (SUMO E1; 30 min preincubation): < 1%
C=CC(=O)Oc1cccc([C@H]2CN(C(=O)C=C)Cc3ccccc32)c1 [Compound 44] | – | – | inhibition at 18 µM (SUMO E1; 18 uM compound, 30 min preincubation): 50%
Cc1ccccc1[C@H]1CN(C(=O)/C=C/CBr)Cc2sc(Cl)cc21 [Compound 131] | – | – | inhibition at 9 µM (SUMO E1; 15 min preincubation): < 1%
C=CC(=O)N1CCc2cc(-c3ccccc3)ccc2C1 [Compound 6] | – | < 1 | inhibition at 25 µM (SUMO E1; 30 min preincubation): < 1%

Structure (SMILES) | inhibition at 25 µM (SUMO E1; 60 min preincubation) [%] | inhibition at 25 µM (Atg7) [%] | other results
C=CC(=O)N1CCc2cc(Cc3ccc(OC)cc3)ccc2C1 [Compound 23] | < 1 | < 1 | –
C=CC(=O)Oc1cccc([C@H]2CN(C(C)=O)Cc3ccccc32)c1 [Compound 50] | – | – | inhibition at 10 µM (SUMO E1; 60 min preincubation): 50%
C=CC(=O)N1Cc2cc(Br)ccc2[C@@H](c2ccccc2OC)C1 [Compound 70] | – | < 1 | inhibition at 10 µM (SUMO E1; 60 min preincubation): 60%
C=CC(=O)N1Cc2cc(C)ccc2[C@@H](c2ccccc2C)C1 [Compound 85] | – | < 1 | inhibition at 10 µM (SUMO E1; 30 min preincubation): 100%
C=CC(=O)N1Cc2sccc2[C@@H](C2CCCCC2)C1 [Compound 123] | – | < 1 | inhibition at 9 µM (SUMO E1; 30 min preincubation): 40%
C=CC(=O)N1Cc2cc(C#N)ccc2[C@@H](c2ccccc2)C1 [Compound 79] | < 1 | < 1 | –
C=CC(=O)N1Cc2ccccc2[C@@H](c2ccccc2)C1 (stereo in doubt) [Compound 11] | – | < 1 | inhibition at 10 µM (SUMO E1; 60 min preincubation): 90%
C=CC(=O)N1Cc2sccc2[C@@H]([C@H]2CCCN(C)C2)C1 [Compound 146] | – | < 1 | inhibition at 9 µM (SUMO E1; 30 min preincubation): < 1%
Cc1ccccc1[C@H]1CN(C(=O)/C=C/C(F)(F)F)Cc2sc(Cl)cc21 [Compound 108] | – | < 1 | inhibition at 1 µM (SUMO E1; 30 min preincubation): 100%
C=CC(=O)N1Cc2ccc(NS(=O)(=O)c3ccccc3)cc2C1 [Compound 17] | 20 | < 1 | –
C=CC(=O)N1Cc2sc(Cl)cc2[C@@H](c2ccccc2CC2CCOCC2)C1 [Compound 138] | – | < 1 | inhibition at 9 µM (SUMO E1; 15 min preincubation): 50%
C=CC(=O)N1Cc2sc(C)cc2[C@@H](c2ccccc2)C1 [Compound 81] | – | – | inhibition at 10 µM (SUMO E1; 30 min preincubation): 30%
C=CC(=O)N1Cc2sc(Cl)cc2[C@@H](c2ccccc2Br)C1 [Compound 158] | – | – | inhibition at 16 µM (SUMO E1; 16 uM compound, 45 min preincubation): < 1%
C=CC(=O)N1Cc2sc(Cl)cc2[C@@H](Cc2ccccc2)C1 [Compound 126] | – | – | inhibition at 27 µM (SUMO E1; 20 min preincubation): 40%
C=CC(=O)N1Cc2sc(Cl)cc2[C@@H](C2CCCCC2)C1 [Compound 124] | – | – | inhibition at 1 µM (SUMO E1; 30 min preincubation): 100%
CCOC(=O)/C=C/CN1Cc2ccccc2[C@@H](c2ccccc2)C1 [Compound 33] | < 1 | – | –
C=CC(=O)N1Cc2ccccc2[C@@H](c2ccccc2)C1 [Compound 28] | < 1 | – | –
C=CC(=O)N1Cc2sc(Cl)cc2[C@@H](c2ccccc2-c2ccccc2C(F)(F)F)C1 [Compound 156] | – | – | inhibition at 9 µM (SUMO E1; 15 min preincubation): < 1%
C=CC(=O)N1Cc2sc(Cl)cc2[C@@H](c2cccc(C)c2C)C1 [Compound 149] | – | – | inhibition at 1 µM (SUMO E1; 30 min preincubation): 90%
C=CC(=O)N1Cc2sc(Cl)cc2[C@@H](C2CCCC2)C1 [Compound 125] | – | – | inhibition at 27 µM (SUMO E1; 30 min preincubation): 100%
C=CC(=O)N1Cc2sc(Cl)cc2[C@@H](c2ccccc2CC)C1 [Compound 144] | – | – | inhibition at 27 µM (SUMO E1; 30 min preincubation): 95%
